Experimental data taken from ChEMBL document CHEMBL1201862, “PubChem BioAssay data set” (2004).
The source made the active and inactive calls.

Key:
fMet-Leu-Phe receptor = fMet-Leu-Phe receptor (Homo sapiens, UniProt P21462); test: formyl peptide receptor binders – dose response (AID 519); assay type: functional
[1] = fluconazole-exposed Candida albicans growth modulators – fluorescence, retest, confirmation (AID 2467); assay type: functional, cell-based
[2] = blockers of HIV-1 ZM109 envelope-driven cell-cell fusion – HeLa effector, CEM target cells, luciferase, cherry-pick, dose response (AID 652058); assay type: functional, cell-based;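 also: luciferase signal from HIV-1 Env mediated cell-cell fusion of effector and target cells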
[3] = HEK-293T viability loss after treatment – luminescence, T-cell screen hits, cytotoxicity control for TCR NF-kB inhibitor project, dose response (AID 489026); assay type: functional, cell-based;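 also: cells exposed to compound about 14 hours before the viability readout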
[4] = viability loss in CEM21 cells – cell-based, CellTiter-Glo luminescence, cherry-picked, cytotoxicity control for viral fusion inhibitor project, dose response (AID 652042); assay type: functional;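 also: potency for signal decrease meaning cytotoxicity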
[5] = HPDE-C7 pancreatic duct cell viability loss – fluorescence, HTS (AID 430); assay type: functional, cell-based; conditions: Homo sapiens
[6] = viability loss of HPDE-C7K cells – cell-based, fluorescence, HTS, primary screen (AID 431); assay type: functional; conditions: Homo sapiens
[7] = target: COUP transcription factor 2 (Homo sapiens, UniProt P24468); test: Luminescence-based cell-based high throughput dose response assay to identify inhibitors of COUP-TFII (NR2F2).; assay type: functional;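 also: HEK293 cells transiently cotransfected with COUP-TFII expression vector and reporter; luciferase reporter luminescence driven by COUP-TFII from the pX2-168 reporter plasmid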
Chain of COUP transcription factor 2 (P24468 whole entry): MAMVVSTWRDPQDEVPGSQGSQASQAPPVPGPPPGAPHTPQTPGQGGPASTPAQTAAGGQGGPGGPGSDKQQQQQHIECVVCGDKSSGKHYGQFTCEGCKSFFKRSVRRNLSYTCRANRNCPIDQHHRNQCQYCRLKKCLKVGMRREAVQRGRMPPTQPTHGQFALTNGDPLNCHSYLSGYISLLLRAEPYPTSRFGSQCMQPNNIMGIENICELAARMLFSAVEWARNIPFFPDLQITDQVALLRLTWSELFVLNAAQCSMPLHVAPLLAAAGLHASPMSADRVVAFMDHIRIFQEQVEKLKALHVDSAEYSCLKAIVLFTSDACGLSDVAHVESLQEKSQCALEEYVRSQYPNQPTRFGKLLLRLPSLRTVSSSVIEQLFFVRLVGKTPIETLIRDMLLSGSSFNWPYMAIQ

[8] = target: T1, Serine/threonine-protein phosphatase (Candida dubliniensis (strain CD36 / CBS 7987 / NCPF 3949 / NRRLY-17841) (Yeast), UniProt B9W6M3); test: blockers of CaCl2-induced CDRE-lacZ signaling – S. cerevisiae, luminescence, secondary, dose response (AID 2388); assay type: functional, cell-based;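 also: yeast reporter cells carrying a calcineurin-responsive lacZ construct stimulated with calcium chloride; luminescent beta-galactosidase reporter signal in whole cells rather than isolated phosphatase activity; potency for inhibition where a drop in reporter signal means calcineurin blockade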
T1 sequence (B9W6M3 whole entry): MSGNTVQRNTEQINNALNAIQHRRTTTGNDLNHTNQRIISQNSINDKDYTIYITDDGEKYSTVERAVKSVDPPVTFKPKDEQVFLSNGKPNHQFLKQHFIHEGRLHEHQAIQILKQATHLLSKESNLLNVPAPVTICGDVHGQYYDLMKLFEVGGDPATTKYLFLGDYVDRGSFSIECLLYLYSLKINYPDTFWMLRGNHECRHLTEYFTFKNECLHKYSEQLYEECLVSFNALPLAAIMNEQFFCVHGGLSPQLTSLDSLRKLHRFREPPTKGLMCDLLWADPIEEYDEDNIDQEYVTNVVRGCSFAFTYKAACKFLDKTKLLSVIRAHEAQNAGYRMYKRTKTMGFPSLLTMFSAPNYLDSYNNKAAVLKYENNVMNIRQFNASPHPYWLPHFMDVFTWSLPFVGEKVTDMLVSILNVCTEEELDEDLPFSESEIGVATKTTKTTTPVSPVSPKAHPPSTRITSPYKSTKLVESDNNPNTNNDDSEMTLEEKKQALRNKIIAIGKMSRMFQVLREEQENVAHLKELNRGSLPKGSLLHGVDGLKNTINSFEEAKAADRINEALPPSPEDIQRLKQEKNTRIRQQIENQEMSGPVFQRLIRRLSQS

[9] = target: ATP-dependent molecular chaperone HSP82 (Candida albicans (strain WO-1) (Yeast), UniProt C4YTQ8); test: steroid-induced GRE reporter decrease in yeast – S. cerevisiae, luminescence, Hsp90 inhibitor project, dose response (AID 2400); assay type: functional, cell-based;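 also: beta-galactosidase luminescence from glucocorticoid response element reporter as proxy for Hsp90 function; inhibitor potency where signal loss means Hsp90 inhibition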
Chain of ATP-dependent molecular chaperone HSP82 (C4YTQ8 whole entry, the tested form may be a part): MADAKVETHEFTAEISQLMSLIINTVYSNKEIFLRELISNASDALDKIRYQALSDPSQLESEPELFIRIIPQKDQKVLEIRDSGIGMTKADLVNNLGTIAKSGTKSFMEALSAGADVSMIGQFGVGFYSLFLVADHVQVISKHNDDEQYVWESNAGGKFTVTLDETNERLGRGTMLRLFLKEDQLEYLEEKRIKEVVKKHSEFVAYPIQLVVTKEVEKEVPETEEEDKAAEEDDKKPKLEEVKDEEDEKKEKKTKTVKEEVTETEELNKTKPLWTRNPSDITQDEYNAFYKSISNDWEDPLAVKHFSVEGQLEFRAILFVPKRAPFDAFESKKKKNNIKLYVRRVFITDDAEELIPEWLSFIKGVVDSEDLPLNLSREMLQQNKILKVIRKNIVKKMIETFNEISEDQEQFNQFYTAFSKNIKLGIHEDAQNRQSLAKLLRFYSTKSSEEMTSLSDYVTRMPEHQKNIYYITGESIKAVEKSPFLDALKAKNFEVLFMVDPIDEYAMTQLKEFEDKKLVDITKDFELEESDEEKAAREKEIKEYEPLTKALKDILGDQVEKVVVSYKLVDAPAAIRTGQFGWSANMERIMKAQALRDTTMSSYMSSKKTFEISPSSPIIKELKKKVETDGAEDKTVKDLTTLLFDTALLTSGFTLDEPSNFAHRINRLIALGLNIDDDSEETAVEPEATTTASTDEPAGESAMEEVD

[10] = HIV-1 AD8 envelope cell-cell fusion blockers – cherry-pick, dose response (AID 652062); assay type: functional, cell-based;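 also: luciferase signal from cell-cell fusion driven by HIV-1 clade B AD8 Env; potency is for inhibitors of fusion seen as a drop in luminescence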
[11] = NIH-3T3 fibroblast cytotoxicity, dose response, cytotoxicity control, cell-based, fluorescence, Alamar Blue, secondary assay (AID 2327); assay type: functional;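 also: NIH-3T3 mouse fibroblasts cultured with fluconazole at 8 µg/mL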
[12] = target: T2, Short transient receptor potential channel 4 (Mus musculus, UniProt Q9QUQ5); test: calcium entry via TRPC4 opening agents – cell-based, HEK293 TRPC4/mu-opioid, Fluo-4 calcium, dose response (AID 434937); assay type: functional
T2 sequence (Q9QUQ5 whole entry): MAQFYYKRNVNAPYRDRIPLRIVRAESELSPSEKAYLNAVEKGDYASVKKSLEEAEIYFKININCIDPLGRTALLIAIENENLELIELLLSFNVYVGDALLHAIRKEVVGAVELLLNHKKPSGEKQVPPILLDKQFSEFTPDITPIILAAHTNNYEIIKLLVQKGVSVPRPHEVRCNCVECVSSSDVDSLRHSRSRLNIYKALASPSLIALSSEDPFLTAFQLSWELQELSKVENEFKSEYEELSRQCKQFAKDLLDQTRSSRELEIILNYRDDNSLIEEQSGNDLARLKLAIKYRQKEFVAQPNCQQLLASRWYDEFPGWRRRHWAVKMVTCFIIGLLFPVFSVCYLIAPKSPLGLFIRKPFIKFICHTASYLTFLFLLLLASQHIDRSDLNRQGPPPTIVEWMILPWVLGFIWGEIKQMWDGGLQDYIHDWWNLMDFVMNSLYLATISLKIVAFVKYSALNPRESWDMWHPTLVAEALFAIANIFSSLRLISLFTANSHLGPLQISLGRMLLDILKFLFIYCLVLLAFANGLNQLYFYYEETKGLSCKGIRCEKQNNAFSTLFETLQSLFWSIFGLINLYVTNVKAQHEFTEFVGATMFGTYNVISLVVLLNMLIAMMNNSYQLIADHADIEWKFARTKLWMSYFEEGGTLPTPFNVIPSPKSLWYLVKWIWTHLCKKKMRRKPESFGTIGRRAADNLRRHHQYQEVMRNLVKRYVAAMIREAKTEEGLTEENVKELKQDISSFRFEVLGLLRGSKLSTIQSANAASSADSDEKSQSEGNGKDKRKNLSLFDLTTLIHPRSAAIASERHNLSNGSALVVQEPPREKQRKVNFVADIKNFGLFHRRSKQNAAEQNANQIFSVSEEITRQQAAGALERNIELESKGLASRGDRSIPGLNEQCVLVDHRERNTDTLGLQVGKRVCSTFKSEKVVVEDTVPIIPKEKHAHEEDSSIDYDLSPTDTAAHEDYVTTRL

[13] = Luminescence Cell-Based Dose Response HTS to Identify Activators of Luciferase Translation or Activity in H4 […] Cells. [Related pubchem assays: 1829 (Project Summary), 1814 (Primary HTS)]; assay type: functional
cells [14] = assay type: functional, cell-based
H4 = test: Luminescence Cell-Based Dose Response HTS to Identify Activators of 5'UTR Stem-Loop Driven Prion Protein mRNA Translation in H4 Neuroglioblastoma Cells. [Related pubchem assays: 1829 (Project Summary), 1814 (Primary HTS)]; assay type: functional; conditions: Homo sapiens
[15] = Luminescence Cell-Based Dose Confirmation HTS to Identify Activators of 5'UTR Stem-Loop Driven Alpha-Synuclein mRNA Translation in H4 Neuroglioblastoma Cells. [Related pubchem assays: 1829 (Project Summary), 1814 (Primary HTS)]; assay type: functional
[16] = target: T3, Oxysterols receptor LXR-beta (Homo sapiens, UniProt P55055); assay type: functional, cell-based;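 also: agonist activity at LXR measured by a cell-based luminescence readout across a dose range, run as a counterscreen for daf-12 agonists; HEK293 cells with Gal4-LXR fusion and GAL4-driven luciferase reporter; potency for activation of Gal4-LXR reporter so compounds are agonists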
T3 sequence (P55055 whole entry): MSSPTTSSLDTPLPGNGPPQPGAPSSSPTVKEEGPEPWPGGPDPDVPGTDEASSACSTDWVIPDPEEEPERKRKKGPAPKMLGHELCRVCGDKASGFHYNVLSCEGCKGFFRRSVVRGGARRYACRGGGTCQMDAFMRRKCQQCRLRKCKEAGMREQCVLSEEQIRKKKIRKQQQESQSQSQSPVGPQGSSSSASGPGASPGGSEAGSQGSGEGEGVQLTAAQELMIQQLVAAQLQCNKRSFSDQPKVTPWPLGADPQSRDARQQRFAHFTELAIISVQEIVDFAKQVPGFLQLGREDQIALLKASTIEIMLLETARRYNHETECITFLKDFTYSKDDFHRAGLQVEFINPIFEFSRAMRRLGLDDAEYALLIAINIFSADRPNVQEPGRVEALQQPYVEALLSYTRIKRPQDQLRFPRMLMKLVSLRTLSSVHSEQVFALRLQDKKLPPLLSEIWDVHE

cells [17] = assay type: functional, cell-based; remark: listed apart in the source
[18] = target: Photoreceptor-specific nuclear receptor (Homo sapiens, UniProt Q9Y5X4); assay type: functional, cell-based;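 also: CHO-S cells with Gal4-NCOR and VP16-NR2E3 two-hybrid luciferase reporter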
Chain of Photoreceptor-specific nuclear receptor (Q9Y5X4 whole entry, the tested form may be a part): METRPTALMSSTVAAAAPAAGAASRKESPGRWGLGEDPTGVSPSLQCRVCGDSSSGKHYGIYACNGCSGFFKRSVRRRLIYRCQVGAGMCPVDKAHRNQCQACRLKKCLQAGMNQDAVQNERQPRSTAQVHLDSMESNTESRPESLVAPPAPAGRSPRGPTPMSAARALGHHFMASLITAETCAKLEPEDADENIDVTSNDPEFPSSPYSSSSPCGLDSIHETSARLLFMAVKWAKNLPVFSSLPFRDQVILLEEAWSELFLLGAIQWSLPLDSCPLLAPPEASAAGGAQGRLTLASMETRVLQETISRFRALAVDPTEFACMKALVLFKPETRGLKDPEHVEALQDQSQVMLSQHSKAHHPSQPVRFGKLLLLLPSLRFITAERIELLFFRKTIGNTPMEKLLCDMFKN

[19] = cytotoxicity in MITF-independent A375 cells – cell-based, CellTiter-Glo luminescence, dry powder, set 4, counter-screen for MITF inhibitor project, dose response (AID 624364); assay type: functional; conditions: A-375;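 also: A375 melanoma cells are MITF independent so this is a counter screen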
[20] = viability loss in MITF-independent A375 cells – cell-based, CellTiter-Glo luminescence, dry powder, set 2, counter-screen for MITF inhibitor project, dose response (AID 624489); assay type: functional; conditions: A-375;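 also: actives are compounds lowering A375 viability meaning general cytotoxicity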

Chain of fMet-Leu-Phe receptor (P21462 whole entry): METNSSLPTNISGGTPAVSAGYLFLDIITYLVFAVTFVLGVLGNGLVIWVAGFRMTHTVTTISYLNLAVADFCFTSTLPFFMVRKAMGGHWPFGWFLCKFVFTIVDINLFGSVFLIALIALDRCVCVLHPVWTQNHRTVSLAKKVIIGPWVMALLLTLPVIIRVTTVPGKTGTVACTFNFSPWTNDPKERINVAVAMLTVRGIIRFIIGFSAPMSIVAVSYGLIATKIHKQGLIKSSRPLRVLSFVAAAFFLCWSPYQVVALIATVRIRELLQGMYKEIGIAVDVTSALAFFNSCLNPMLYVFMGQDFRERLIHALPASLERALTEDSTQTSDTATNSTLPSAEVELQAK

Cc1nc(C)c(C(=O)C2=C(O)C(=O)N(CCCn3ccnc3)C2c2ccc(Cl)cc2)s1 (stereo not drawn)
Ki (fMet-Leu-Phe receptor): > 66.7 µM (inactive)

c1ccc2c(c1)CCN(c1[nH]cnc3c4ccccc4nc1-3)C2
EC50 [1]: 1.01 µM (active)
AC50 [2]: 2.62 µM (active)
IC50 [3]: 21 µM (inactive)
AC50 [4]: 64.8 µM (active)
EC50 [5]: 17.7 µM (active)
EC50 [6]: > 20 µM (not active)
IC50 [7]: 4.69 µM (active)
EC50 [8]: > 180 µM (inactive)
EC50 [9]: > 150 µM (inactive)
AC50 [10]: 4.09 µM (active)
EC50 [11]: > 150 µM (inactive)
EC50 [12]: 5.96 µM (active)

Cc1ccc(NC(S)=NC(=NS(=O)(=O)c2ccccc2)c2ccccc2)cc1
EC50 [13]: 16.5 µM (active)
EC50 (cells [14]): > 350 µM (not active)
EC50 (H4): 6.51 µM (active)
EC50 [15]: 5.09 µM (active)
EC50 [16]: > 67.5 µM (inactive)
EC50 (cells [17]): 202 µM (active)

CCCc1cc(=O)n2nc(N3CCC(C(=O)N4CCN(c5ccc(OC)cc5)CC4)CC3)sc2n1
IC50 [7]: 7.18 µM (active)
IC50 [18]: 4.09 µM (active)

COc1ccc(C2=C(NC(=O)c3ccc4ccccc4c3)C(=O)c3ccccc3C2=O)cc1
AC50 [19]: > 70 µM (inactive)
AC50 [20]: > 70 µM (inactive)
